Laboratory results published in US20260070945A1, “MACROCYCLIC IMMUNOMODULATORS” (Bristol-Myers Squibb Company, priority 2022, published 2026).
Where a SMILES comes first, the peptide text is derived from it. Bridges are numbered along the chain shown (N, C = ends). [ ]: non-standard residue; d: D form. The star is where a group is joined. Bip = N[C@@H](Cc1ccc(-c2ccccc2)cc1)C(=O)O; Phe(3-Me) = Cc1cccc(C[C@H](N)C(=O)O)c1; Hexyloxycarbonyl = CCCCCCOC(=O)*; 3Pal = N[C@@H](Cc1cccnc1)C(=O)O; Cha = N[C@@H](CC1CCCCC1)C(=O)O; Carboxymethyl = O=C(O)C*; NMeA = CN[C@@H](C)C(=O)O; Orn = NCCC[C@H](N)C(=O)O; Aun = NCCCCCCCCCCC(=O)O; Dab = NCC[C@H](N)C(=O)O; Dap = NC[C@H](N)C(=O)O; AEEA = NCCOCCOCC(=O)O

Target: T1, PD-1/PD-L1 interaction (PE-labeled human PD-L1-Ig binding to Jurkat cell line over-expressing human PD-1) (Homo sapiens, UniProt Q15116)
T1 construct: expressed in transfected cells; host or cells: Jurkat
T1 sequence (Q15116 25-288): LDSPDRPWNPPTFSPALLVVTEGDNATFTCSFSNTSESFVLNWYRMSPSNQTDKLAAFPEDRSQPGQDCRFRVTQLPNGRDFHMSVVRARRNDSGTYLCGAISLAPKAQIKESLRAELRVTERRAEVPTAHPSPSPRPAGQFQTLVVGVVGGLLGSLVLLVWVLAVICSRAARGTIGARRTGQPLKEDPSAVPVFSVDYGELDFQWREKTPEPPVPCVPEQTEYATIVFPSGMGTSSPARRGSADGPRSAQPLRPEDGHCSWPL
Test: Jurkat-PD-1 Cell Binding High-Content Screening Assay (CBA)
Details: Jurkat-hPD-1 cells, PE-labeled PD-L1-Ig 20 nM final; read-out: Jurkat HPD1 PDL1 IC50
Procedure, shortened: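 Compound is added first to the PD-1-expressing Jurkat cells and held 2 h at 37 °C in serum-containing DMEM. The fluorescent PD-L1 fusion follows at 20 nM final for 1 h. Fixed, Hoechst-stained cells are then imaged for bound label.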

Row | Structure (SMILES) | IC50
1 | CCCCCCOC(=O)NCC[C@@H]1NC(=O)[C@@H](CC(C)C)NC(=O)[C@H](C)N(C)C(=O)[C@H](Cc2ccc(OCC(=O)O)cc2)NC(=O)[C@H](Cc2ccc(-c3ccccc3)cc2)NC(=O)[C@H](Cc2ccc(OCC(=O)O)cc2)NC(=O)[C@H](Cc2cccc(C)c2)NC(=O)[C@H](CC(=O)O)NC(=O)[C@H](Cc2ccc(OCC(=O)O)cc2)NC(=O)[C@H]([C@@H](C)O)NC(=O)CSC[C@@H](C(=O)N[C@@H](CCN)C(=O)NCCOCCOCC(=O)NCCCCCCCCCCC(=O)O)NC(=O)[C@H](CCC(=O)O)NC(=O)[C@H](C(C)C)NC(=O)[C@H](CC2CCCCC2)NC1=O [Example 1311] ({CH2CO}-TY(Carboxymethyl)D[Phe(3-Me)]Y(Carboxymethyl)[Bip]Y(Carboxymethyl)[NMeA][dL][Dab](Hexyloxycarbonyl)[Cha]VEC[Dab][AEEA][Aun]-OH; thioether N-14) | 244 nM
2 | Cc1cccc(C[C@@H]2NC(=O)[C@H](CC(=O)O)NC(=O)[C@H](Cc3ccc(OCC(=O)O)cc3)NC(=O)[C@H](CN)NC(=O)CSC[C@@H](C(=O)N[C@@H](CCN)C(=O)NCCOCCOCC(=O)NCCCCCCCCCCC(=O)O)NC(=O)[C@H](CCCN)NC(=O)[C@H](C(C)C)NC(=O)[C@H](CC3CCCCC3)NC(=O)[C@H](CCN)NC(=O)[C@@H](CC(C)C)NC(=O)[C@H](C)N(C)C(=O)[C@H](Cc3ccc(O)cc3)NC(=O)[C@H](Cc3ccc(-c4ccccc4)cc3)NC(=O)[C@H](Cc3ccc(O)cc3)NC2=O)c1 [Example 1312] ({CH2CO}-[Dap]Y(Carboxymethyl)D[Phe(3-Me)]Y[Bip]Y[NMeA][dL][Dab][Cha]V[Orn]C[Dab][AEEA][Aun]-OH; thioether N-14) | 27.4 nM
3 | Cc1cccc(C[C@@H]2NC(=O)[C@H](CC(=O)O)NC(=O)[C@H](Cc3ccc(OCC(=O)O)cc3)NC(=O)[C@H](CN)NC(=O)CSC[C@@H](C(=O)N[C@@H](CCN)C(=O)NCCCCCCCCCCC(=O)O)NC(=O)[C@H](CCCN)NC(=O)[C@H](C(C)C)NC(=O)[C@H](CC3CCCCC3)NC(=O)[C@H](CCN)NC(=O)[C@@H](CC(C)C)NC(=O)[C@H](C)N(C)C(=O)[C@H](Cc3ccc(O)cc3)NC(=O)[C@H](Cc3ccc(-c4ccccc4)cc3)NC(=O)[C@H](Cc3ccc(O)cc3)NC2=O)c1 [Example 1313] ({CH2CO}-[Dap]Y(Carboxymethyl)D[Phe(3-Me)]Y[Bip]Y[NMeA][dL][Dab][Cha]V[Orn]C[Dab][Aun]-OH; thioether N-14) | 28.2 nM
4 | Cc1cccc(C[C@@H]2NC(=O)[C@H](CC(=O)O)NC(=O)[C@H](Cc3ccc(OCC(=O)O)cc3)NC(=O)[C@H](CN)NC(=O)CSC[C@@H](C(=O)N[C@@H](CCN)C(=O)NCCOCCOCC(=O)NCCCCCCCCCCC(=O)O)NC(=O)[C@H](CCCN)NC(=O)[C@H](C(C)C)NC(=O)[C@H](CC3CCCCC3)NC(=O)[C@H](CCN)NC(=O)[C@@H](CC(C)C)NC(=O)[C@H](C)N(C)C(=O)[C@H](Cc3ccc(O)cc3)NC(=O)[C@H](Cc3ccc(-c4ccccc4)cc3)NC(=O)[C@H](C(C)C)NC2=O)c1 [Example 1314] ({CH2CO}-[Dap]Y(Carboxymethyl)D[Phe(3-Me)]V[Bip]Y[NMeA][dL][Dab][Cha]V[Orn]C[Dab][AEEA][Aun]-OH; thioether N-14) | 7 nM
5 | Cc1cccc(C[C@@H]2NC(=O)[C@H](CC(=O)O)NC(=O)[C@H](Cc3ccc(OCC(=O)O)cc3)NC(=O)[C@H](CN)NC(=O)CSC[C@@H](C(=O)N[C@@H](CCN)C(=O)NCCCCCCCCCCC(=O)O)NC(=O)[C@H](CCCN)NC(=O)[C@H](C(C)C)NC(=O)[C@H](CC3CCCCC3)NC(=O)[C@H](CCN)NC(=O)[C@@H](CC(C)C)NC(=O)[C@H](C)N(C)C(=O)[C@H](Cc3ccc(O)cc3)NC(=O)[C@H](Cc3ccc(-c4ccccc4)cc3)NC(=O)[C@H](C(C)C)NC2=O)c1 [Example 1315] ({CH2CO}-[Dap]Y(Carboxymethyl)D[Phe(3-Me)]V[Bip]Y[NMeA][dL][Dab][Cha]V[Orn]C[Dab][Aun]-OH; thioether N-14) | 9.9 nM
6 | Cc1cccc(C[C@@H]2NC(=O)[C@H](CC(=O)O)NC(=O)[C@H](Cc3ccc(OCC(=O)O)cc3)NC(=O)[C@H](CN)NC(=O)CSC[C@@H](C(=O)NCCOCCOCC(=O)NCCCCCCCCCCC(=O)O)NC(=O)[C@H](CCCN)NC(=O)[C@H](C(C)C)NC(=O)[C@H](CC3CCCCC3)NC(=O)[C@H](CCN)NC(=O)[C@@H](CC(C)C)NC(=O)[C@H](C)N(C)C(=O)[C@H](Cc3ccc(O)cc3)NC(=O)[C@H](Cc3ccc(-c4ccccc4)cc3)NC(=O)[C@H](Cc3ccc(O)cc3)NC2=O)c1 [Example 1316] ({CH2CO}-[Dap]Y(Carboxymethyl)D[Phe(3-Me)]Y[Bip]Y[NMeA][dL][Dab][Cha]V[Orn]C[AEEA][Aun]-OH; thioether N-14) | 97.7 nM
7 | Cc1cccc(C[C@@H]2NC(=O)[C@H](CC(=O)O)NC(=O)[C@H](Cc3ccc(OCC(=O)O)cc3)NC(=O)[C@H](CN)NC(=O)CSC[C@@H](C(=O)NCCOCCOCC(=O)NCCCCCCCCCCC(=O)O)NC(=O)[C@H](CCCN)NC(=O)[C@H](C(C)C)NC(=O)[C@H](CC3CCCCC3)NC(=O)[C@H](CCN)NC(=O)[C@@H](CC(C)C)NC(=O)[C@H](C)N(C)C(=O)[C@H](Cc3ccc(O)cc3)NC(=O)[C@H](Cc3ccc(-c4ccccc4)cc3)NC(=O)[C@H](C(C)C)NC2=O)c1 [Example 1317] ({CH2CO}-[Dap]Y(Carboxymethyl)D[Phe(3-Me)]V[Bip]Y[NMeA][dL][Dab][Cha]V[Orn]C[AEEA][Aun]-OH; thioether N-14) | 36.5 nM
8 | Cc1cccc(C[C@@H]2NC(=O)[C@H](CC(=O)O)NC(=O)[C@H](Cc3ccc(OCC(=O)O)cc3)NC(=O)[C@H](CN)NC(=O)CSC[C@@H](C(=O)NCCCCCCCCCCC(=O)O)NC(=O)[C@H](CCCN)NC(=O)[C@H](C(C)C)NC(=O)[C@H](CC3CCCCC3)NC(=O)[C@H](CCN)NC(=O)[C@@H](CC(C)C)NC(=O)[C@H](C)N(C)C(=O)[C@H](Cc3ccc(O)cc3)NC(=O)[C@H](Cc3ccc(-c4ccccc4)cc3)NC(=O)[C@H](Cc3ccc(O)cc3)NC2=O)c1 [Example 1318] ({CH2CO}-[Dap]Y(Carboxymethyl)D[Phe(3-Me)]Y[Bip]Y[NMeA][dL][Dab][Cha]V[Orn]C[Aun]-OH; thioether N-14) | 59.8 nM
9 | Cc1cccc(C[C@@H]2NC(=O)[C@H](CC(=O)O)NC(=O)[C@H](Cc3ccc(OCC(=O)O)cc3)NC(=O)[C@H](CN)NC(=O)CSC[C@@H](C(=O)NCCCCCCCCCCC(=O)O)NC(=O)[C@H](CCCN)NC(=O)[C@H](C(C)C)NC(=O)[C@H](CC3CCCCC3)NC(=O)[C@H](CCN)NC(=O)[C@@H](CC(C)C)NC(=O)[C@H](C)N(C)C(=O)[C@H](Cc3ccc(O)cc3)NC(=O)[C@H](Cc3ccc(-c4ccccc4)cc3)NC(=O)[C@H](C(C)C)NC2=O)c1 [Example 1319] ({CH2CO}-[Dap]Y(Carboxymethyl)D[Phe(3-Me)]V[Bip]Y[NMeA][dL][Dab][Cha]V[Orn]C[Aun]-OH; thioether N-14) | 42 nM
10 | Cc1cccc(C[C@@H]2NC(=O)[C@H](CC(=O)O)NC(=O)[C@H](Cc3ccc(OCC(=O)O)cc3)NC(=O)[C@H](CN)NC(=O)CSC[C@@H](C(=O)N[C@@H](CCN)C(=O)NCCCCCCCCCCC(=O)O)NC(=O)[C@H]([C@@H](C)O)NC(=O)[C@H](C(C)C)NC(=O)[C@H](CC3CCCCC3)NC(=O)[C@H](CCN)NC(=O)[C@@H](CC(C)C)NC(=O)[C@H](C)N(C)C(=O)[C@H](Cc3ccc(O)cc3)NC(=O)[C@H](Cc3ccc(-c4ccccc4)cc3)NC(=O)[C@H](C(C)C)NC2=O)c1 [Example 1320] ({CH2CO}-[Dap]Y(Carboxymethyl)D[Phe(3-Me)]V[Bip]Y[NMeA][dL][Dab][Cha]VTC[Dab][Aun]-OH; thioether N-14) | 15 nM
11 | Cc1cccc(C[C@@H]2NC(=O)[C@H](CC(=O)O)NC(=O)[C@H](Cc3ccc(O)cc3)NC(=O)[C@H](CC(N)=O)NC(=O)CSC[C@@H](C(=O)N[C@@H](CCN)C(=O)NCCCCCCCCCCC(=O)O)NC(=O)[C@H]([C@@H](C)O)NC(=O)[C@H](C(C)C)NC(=O)[C@H](CC3CCCCC3)NC(=O)[C@H](CCN)NC(=O)[C@@H](CC(C)C)NC(=O)[C@H](C)N(C)C(=O)[C@H](Cc3ccc(O)cc3)NC(=O)[C@H](Cc3ccc(-c4ccccc4)cc3)NC(=O)[C@H](C(C)C)NC2=O)c1 [Example 1321] ({CH2CO}-NYD[Phe(3-Me)]V[Bip]Y[NMeA][dL][Dab][Cha]VTC[Dab][Aun]-OH; thioether N-14) | 142 nM
12 | Cc1cccc(C[C@@H]2NC(=O)[C@H](CC(=O)O)NC(=O)[C@H](Cc3ccc(OCC(=O)O)cc3)NC(=O)[C@H](CC(N)=O)NC(=O)CSC[C@@H](C(=O)N[C@@H](CCN)C(=O)NCCCCCCCCCCC(=O)O)NC(=O)[C@H]([C@@H](C)O)NC(=O)[C@H](C(C)C)NC(=O)[C@H](CC3CCCCC3)NC(=O)[C@H](CCN)NC(=O)[C@@H](CC(C)C)NC(=O)[C@H](C)N(C)C(=O)[C@H](Cc3ccc(O)cc3)NC(=O)[C@H](Cc3ccc(-c4ccccc4)cc3)NC(=O)[C@H](C(C)C)NC2=O)c1 [Example 1322] ({CH2CO}-NY(Carboxymethyl)D[Phe(3-Me)]V[Bip]Y[NMeA][dL][Dab][Cha]VTC[Dab][Aun]-OH; thioether N-14) | 19.7 nM
13 | Cc1cccc(C[C@@H]2NC(=O)[C@H](CC(=O)O)NC(=O)[C@H](Cc3cccnc3)NC(=O)[C@H](CC(N)=O)NC(=O)CSC[C@@H](C(=O)N[C@@H](CCN)C(=O)NCCCCCCCCCCC(=O)O)NC(=O)[C@H]([C@@H](C)O)NC(=O)[C@H](C(C)C)NC(=O)[C@H](CC3CCCCC3)NC(=O)[C@H](CCN)NC(=O)[C@@H](CC(C)C)NC(=O)[C@H](C)N(C)C(=O)[C@H](Cc3ccc(O)cc3)NC(=O)[C@H](Cc3ccc(-c4ccccc4)cc3)NC(=O)[C@H](C(C)C)NC2=O)c1 [Example 1323] ({CH2CO}-N[3Pal]D[Phe(3-Me)]V[Bip]Y[NMeA][dL][Dab][Cha]VTC[Dab][Aun]-OH; thioether N-14) | 99.4 nM
